Measurements taken from patent publication US9422297B2, “Tricyclic compounds having cytostatic and/or cytotoxic activity and methods of use thereof” (Duquesne University of the Holy Ghost, priority 2007, dated 2016).

Assays:
[1] = test system: SK-MEL-2; assay: NCI In-Vitro Testing, Melanoma; type: cell-based
[2] = test system: TK-10; assay: NCI In-Vitro Testing, Renal Cancer; type: cell-based
[3] = test system: NCI-H226; assay: NCI In-Vitro Testing, Non-Small Cell Lung Cancer; type: cell-based
[4] = test system: SN12C; assay: NCI In-Vitro Testing, Renal Cancer; type: cell-based
[5] = test system: HOP-92; assay: NCI In-Vitro Testing, Non-Small Cell Lung Cancer; type: cell-based
[6] = test system: 60 tumor cell line panel; assay: NCI 60 preclinical in vitro tumor screening panel; conditions: read-out: GI50 across tumor panel
[7] = test system: K-562; assay: NCI In-Vitro Testing, Leukemia; type: cell-based
[8] = test system: MALME-3M; assay: NCI In-Vitro Testing, Melanoma; type: cell-based
[9] = test system: HT29; assay: NCI In-Vitro Testing, Colon Cancer; type: cell-based
[10] = test system: HCT-15; assay: NCI In-Vitro Testing, Colon Cancer; type: cell-based
[11] = test system: 785-0; assay: NCI In-Vitro Testing, Renal Cancer; type: cell-based
[12] = test system: SW-620; assay: NCI In-Vitro Testing, Colon Cancer; type: cell-based
[13] = test system: NCI-H23; assay: NCI In-Vitro Testing, Non-Small Cell Lung Cancer; type: cell-based
[14] = test system: SNB-19; assay: NCI In-Vitro Testing, CNS Cancer; type: cell-based
[15] = test system: OVCAR-6; assay: NCI In-Vitro Testing, Ovarian Cancer; type: cell-based
[16] = test system: HL-60(TB); assay: NCI In-Vitro Testing, Leukemia; type: cell-based
[17] = test system: HCT-116; assay: NCI In-Vitro Testing, Colon Cancer; type: cell-based
[18] = test system: HOP-52; assay: NCI In-Vitro Testing, Non-Small Cell Lung Cancer; type: cell-based
[19] = test system: NCI-H522; assay: NCI In-Vitro Testing, Non-Small Cell Lung Cancer; type: cell-based

## Nc1nc2c(c(Nc3ccc(Cl)cc3)n1)-c1ccccc1C2 [AAG145-136]
[1]
  GI50: 5.58E−7 Molar
  LC50: >1.00E−4 Molar
  TGI: >1.00E−4 Molar
[1]; Log10 Concentration −4.0 Molar
  Percent Growth: 16%
[1]; Log10 Concentration −5.0 Molar
  Percent Growth: 27%
[1]; Log10 Concentration −6.0 Molar
  Percent Growth: 35%
[1]; Log10 Concentration −7.0 Molar
  Percent Growth: 95%
[1]; Log10 Concentration −8.0 Molar
  Percent Growth: 98%
[2]
  GI50: 2.15E−6 Molar
  LC50: >1.00E−4 Molar
  TGI: >1.00E−4 Molar
[2]; Log10 Concentration −4.0 Molar
  Percent Growth: 27%
[2]; Log10 Concentration −5.0 Molar
  Percent Growth: 34%
[2]; Log10 Concentration −6.0 Molar
  Percent Growth: 58%
[2]; Log10 Concentration −7.0 Molar
  Percent Growth: 113%
[2]; Log10 Concentration −8.0 Molar
  Percent Growth: 110%
[3]
  GI50: 2.14E−6 Molar
  LC50: >1.00E−4 Molar
  TGI: >1.00E−4 Molar
[3]; Log10 Concentration −4.0 Molar
  Percent Growth: 14%
[3]; Log10 Concentration −5.0 Molar
  Percent Growth: 36%
[3]; Log10 Concentration −6.0 Molar
  Percent Growth: 57%
[3]; Log10 Concentration −7.0 Molar
  Percent Growth: 97%
[3]; Log10 Concentration −8.0 Molar
  Percent Growth: 98%
[4]
  GI50: 1.89E−7 Molar
  LC50: >1.00E−4 Molar
  TGI: >1.00E−4 Molar
[4]; Log10 Concentration −4.0 Molar
  Percent Growth: 9%
[4]; Log10 Concentration −5.0 Molar
  Percent Growth: 25%
[4]; Log10 Concentration −6.0 Molar
  Percent Growth: 37%
[4]; Log10 Concentration −7.0 Molar
  Percent Growth: 55%
[4]; Log10 Concentration −8.0 Molar
  Percent Growth: 102%
[5]
  GI50: 1.81E−5 Molar
  LC50: >1.00E−4 Molar
  TGI: >1.00E−4 Molar
[5]; Log10 Concentration −4.0 Molar
  Percent Growth: 15%
[5]; Log10 Concentration −5.0 Molar
  Percent Growth: 62%
[5]; Log10 Concentration −6.0 Molar
  Percent Growth: 74%
[5]; Log10 Concentration −7.0 Molar
  Percent Growth: 96%
[5]; Log10 Concentration −8.0 Molar
  Percent Growth: 100%
[6]
  GI50: 31.2 to 1000 nM
[7]
  GI50: 3.56E−7 Molar
  LC50: >1.00E−4 Molar
  TGI: >1.00E−4 Molar
[7]; Log10 Concentration −4.0 Molar
  Percent Growth: 26%
[7]; Log10 Concentration −5.0 Molar
  Percent Growth: 16%
[7]; Log10 Concentration −6.0 Molar
  Percent Growth: 20%
[7]; Log10 Concentration −7.0 Molar
  Percent Growth: 89%
[7]; Log10 Concentration −8.0 Molar
  Percent Growth: 103%
[8]
  GI50: >1.00E−4 Molar
  LC50: >1.00E−4 Molar
  TGI: >1.00E−4 Molar
[8]; Log10 Concentration −4.0 Molar
  Percent Growth: 78%
[8]; Log10 Concentration −5.0 Molar
  Percent Growth: 64%
[8]; Log10 Concentration −6.0 Molar
  Percent Growth: 106%
[8]; Log10 Concentration −7.0 Molar
  Percent Growth: 97%
[8]; Log10 Concentration −8.0 Molar
  Percent Growth: 96%
[9]
  GI50: 9.39E−8 Molar
  LC50: >1.00E−4 Molar
  TGI: >1.00E−4 Molar
[9]; Log10 Concentration −4.0 Molar
  Percent Growth: 2%
[9]; Log10 Concentration −5.0 Molar
  Percent Growth: 7%
[9]; Log10 Concentration −6.0 Molar
  Percent Growth: 21%
[9]; Log10 Concentration −7.0 Molar
  Percent Growth: 49%
[9]; Log10 Concentration −8.0 Molar
  Percent Growth: 94%
[10]
  GI50: 4.34E−7 Molar
  LC50: >1.00E−4 Molar
  TGI: 1.22E−5 Molar
[10]; Log10 Concentration −4.0 Molar
  Percent Growth: −39%
[10]; Log10 Concentration −5.0 Molar
  Percent Growth: 4%
[10]; Log10 Concentration −6.0 Molar
  Percent Growth: 29%
[10]; Log10 Concentration −7.0 Molar
  Percent Growth: 68%
[10]; Log10 Concentration −8.0 Molar
  Percent Growth: 94%
[11]
  GI50: 5.14E−7 Molar
  LC50: >1.00E−4 Molar
  TGI: >1.00E−4 Molar
[11]; Log10 Concentration −4.0 Molar
  Percent Growth: 16%
[11]; Log10 Concentration −5.0 Molar
  Percent Growth: 26%
[11]; Log10 Concentration −6.0 Molar
  Percent Growth: 31%
[11]; Log10 Concentration −7.0 Molar
  Percent Growth: 97%
[11]; Log10 Concentration −8.0 Molar
  Percent Growth: 102%
[12]
  GI50: 6.30E−8 Molar
  LC50: >1.00E−4 Molar
  TGI: >1.00E−4 Molar
[12]; Log10 Concentration −4.0 Molar
  Percent Growth: 10%
[12]; Log10 Concentration −5.0 Molar
  Percent Growth: 10%
[12]; Log10 Concentration −6.0 Molar
  Percent Growth: 15%
[12]; Log10 Concentration −7.0 Molar
  Percent Growth: 39%
[12]; Log10 Concentration −8.0 Molar
  Percent Growth: 92%
[13]
  GI50: 5.55E−7 Molar
  LC50: >1.00E−4 Molar
  TGI: >1.00E−4 Molar
[13]; Log10 Concentration −4.0 Molar
  Percent Growth: 16%
[13]; Log10 Concentration −5.0 Molar
  Percent Growth: 21%
[13]; Log10 Concentration −6.0 Molar
  Percent Growth: 37%
[13]; Log10 Concentration −7.0 Molar
  Percent Growth: 90%
[13]; Log10 Concentration −8.0 Molar
  Percent Growth: 86%
[14]
  GI50: 1.13E−7 Molar
  LC50: >1.00E−4 Molar
  TGI: >1.00E−4 Molar
[14]; Log10 Concentration −4.0 Molar
  Percent Growth: 6%
[14]; Log10 Concentration −5.0 Molar
  Percent Growth: 17%
[14]; Log10 Concentration −6.0 Molar
  Percent Growth: 28%
[14]; Log10 Concentration −7.0 Molar
  Percent Growth: 51%
[14]; Log10 Concentration −8.0 Molar
  Percent Growth: 100%
[15]
  GI50: 2.16E−7 Molar
  LC50: >1.00E−4 Molar
  TGI: >1.00E−4 Molar
[15]; Log10 Concentration −4.0 Molar
  Percent Growth: 18%
[15]; Log10 Concentration −5.0 Molar
  Percent Growth: 25%
[15]; Log10 Concentration −6.0 Molar
  Percent Growth: 36%
[15]; Log10 Concentration −7.0 Molar
  Percent Growth: 57%
[15]; Log10 Concentration −8.0 Molar
  Percent Growth: 102%
[16]
  GI50: 1.50E−7 Molar
  LC50: >1.00E−4 Molar
  TGI: >1.00E−4 Molar
[16]; Log10 Concentration −4.0 Molar
  Percent Growth: 12%
[16]; Log10 Concentration −5.0 Molar
  Percent Growth: 13%
[16]; Log10 Concentration −6.0 Molar
  Percent Growth: 23%
[16]; Log10 Concentration −7.0 Molar
  Percent Growth: 56%
[16]; Log10 Concentration −8.0 Molar
  Percent Growth: 87%
[17]
  GI50: 3.81E−8 Molar
  LC50: >1.00E−4 Molar
  TGI: >1.00E−4 Molar
[17]; Log10 Concentration −4.0 Molar
  Percent Growth: 6%
[17]; Log10 Concentration −5.0 Molar
  Percent Growth: 13%
[17]; Log10 Concentration −6.0 Molar
  Percent Growth: 13%
[17]; Log10 Concentration −7.0 Molar
  Percent Growth: 23%
[17]; Log10 Concentration −8.0 Molar
  Percent Growth: 87%
[18]
  GI50: 6.54E−7 Molar
  LC50: >1.00E−4 Molar
  TGI: >1.00E−4 Molar
[18]; Log10 Concentration −4.0 Molar
  Percent Growth: 32%
[18]; Log10 Concentration −5.0 Molar
  Percent Growth: 25%
[18]; Log10 Concentration −6.0 Molar
  Percent Growth: 40%
[18]; Log10 Concentration −7.0 Molar
  Percent Growth: 94%
[18]; Log10 Concentration −8.0 Molar
  Percent Growth: 97%
[19]
  GI50: 6.22E−7 Molar
  LC50: >1.00E−4 Molar
  TGI: 3.88E−5 Molar
[19]; Log10 Concentration −4.0 Molar
  Percent Growth: −10%
[19]; Log10 Concentration −5.0 Molar
  Percent Growth: 14%
[19]; Log10 Concentration −6.0 Molar
  Percent Growth: 40%
[19]; Log10 Concentration −7.0 Molar
  Percent Growth: 89%
[19]; Log10 Concentration −8.0 Molar
  Percent Growth: 96%
